Measured values from US20230159538A1, “PYRROLIDINE-PYRAZOLES AS PYRUVATE KINASE ACTIVATORS” (Global Blood Therapeutics, Inc., priority 2020, published 2023).

Target: T1, Human pyruvate kinase R (PKR) (Homo sapiens, UniProt P30613)
T1 construct: Human pyruvate kinase R (PKR), residues 14-574; 6x-His (N, cleaved yes); 8x-Arg (N, cleaved yes); SUMO (N, cleaved yes); host or cells: E. coli
Assay: Biochemical assay for activation of pyruvate kinase R (Kinase-Glo luminescence, ATP generation)
Conditions: for AC50: 0.1 nM PKR, 2 mM FBP, 0.3 mM ADP, 0.1 mM PEP; for PKR % activation: maximal activation level relative to the activation level achieved by AG-348 @ 10 μM
Description: Proteins were translated as fusions with 6×-His, 8×-Arg, and SUMO at the N-terminus. […] All proteins were cloned, expressed in E. coli, and purified using similar protocols. Cells were grown at 30° C. in Luria-Bertani broth supplemented with 0.4% glucose to OD600=0.8 and induced with 0.4 mM IPTG at 16° C. for 18 hours. Cells were harvested by centrifugation, resuspended in 50 mM potassium phosphate pH 8.0, 500 mM NaCl, 25 mM imidazole pH 8.0, and 3 mM β-mercaptoethanol. Cells were lysed using a LM20 microfluidizer from Microfluidics (Westwood, Mass.). The crude lysate was immediately supplemented with 0.2 mM phenylmethylsulfonyl fluoride (PMSF) and centrifuged at 20,000 g for 20 minutes. The soluble fraction was subsequently incubated with 2 mL Ni-NTA (GE Healthcare) per 1,000 ODs for 1 hour at 4° C. Following incubation with the Ni-NTA resin, lysate was removed by pelleting resin at 2,500 g for 3 minutes and washed 3 times with 9 bed volumes of 50 mM potassium phosphate pH 8.0, 500 mM NaCl, 25 mM imidazole, and 3 mM β-mercaptoethanol. Following the batch wash Ni-NTA resin was loaded onto a gravity column and His-tagged protein was eluted with 6 bed volumes of 10 mM Tris/HCl pH 8.0, 200 mM NaCl, 500 mM imidazole, and 3 mM β-mercaptoethanol. Eluted protein was dialyzed overnight against 10 mM Tris/HCl pH 8.0, 200 mM NaCl, and 1 mM DTT and the 6×-His-8×-Arg-SUMO-tag was cleaved using a 20:1 molar ratio of protein:3C protease. The protein was purified by anion exchange chromatography on a HiTrapQ or MonoQ 10/100 GL column (GE Healthcare) via a linear NaCl gradient and twice by size exclusion chromatography using a Superdex S200 26/60 column (GE Healthcare) run in 10 mM Tris/HCl pH 8.0, 200 mM NaCl, 10 mM MgCl2, 1 mM DTT. Proteins were concentrated to ˜12 mg/mL for crystallization and flash frozen for storage.
Biochemical Assay for Activation of Pyruvate Kinase R
Activation of pyruvate kinase R (PKR) and pyruvate kinase M2 (PKM2) were measured using a luminescence based measurement of ATP generation and the Kinase-Glo luminescent kinase reagent kit.

T1 sequence (P30613 14-574): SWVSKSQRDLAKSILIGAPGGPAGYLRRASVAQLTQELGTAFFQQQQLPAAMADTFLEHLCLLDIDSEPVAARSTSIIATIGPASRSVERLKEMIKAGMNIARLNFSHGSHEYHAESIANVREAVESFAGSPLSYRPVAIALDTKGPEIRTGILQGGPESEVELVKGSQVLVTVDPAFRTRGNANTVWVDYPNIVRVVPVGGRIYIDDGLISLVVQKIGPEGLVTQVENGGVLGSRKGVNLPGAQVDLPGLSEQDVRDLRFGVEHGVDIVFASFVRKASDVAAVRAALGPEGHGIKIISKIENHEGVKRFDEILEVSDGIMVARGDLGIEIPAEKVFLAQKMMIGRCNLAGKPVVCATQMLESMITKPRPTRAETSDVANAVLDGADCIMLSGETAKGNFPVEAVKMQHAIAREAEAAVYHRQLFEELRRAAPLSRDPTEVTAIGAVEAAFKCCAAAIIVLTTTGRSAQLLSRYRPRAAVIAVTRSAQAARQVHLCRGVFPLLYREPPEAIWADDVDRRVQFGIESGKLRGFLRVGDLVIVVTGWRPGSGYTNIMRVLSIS

AC50 | PKR % activation | SMILES
39 nM |  | O=C(C(CO)c1ccncc1)N1Cc2cn(S(=O)(=O)c3ccc4ncsc4c3)nc2C1 (racemic) [Compound 27, 1-[2-(1,3-benzothiazole-6-sulfonyl)-2H,4H,5H,6H-pyrrolo[3,4-c]pyrazol-5-yl]-3-hydroxy-2-(pyridin-4-yl)propan-1-one]
210 nM |  | COC(C(=O)N1Cc2cn(S(=O)(=O)c3ccc(OC(F)F)cc3)nc2C1)c1ccccc1F (racemic) [Compound 98, 1-{2-[4-(difluoromethoxy)benzenesulfonyl]-2H,4H,5H,6H-pyrrolo[3,4-c]pyrazol-5-yl}-2-(2-fluorophenyl)-2-methoxyethan-1-one]
1980 nM | 152% | O=C([C@@H](CO)c1ccccc1)N1Cc2cn(S(=O)(=O)c3ccc(OC(F)F)cc3)nc2C1 (single isomer, unassigned) [Compound 8, (2R)-1-{2-[4-(difluoromethoxy)benzenesulfonyl]-2H,4H,5H,6H-pyrrolo[3,4-c]pyrazol-5-yl}-3-hydroxy-2-phenylpropan-1-one, or (2S)-1-{2-[4-(difluoromethoxy)benzenesulfonyl]-2H,4H,5H,6H-pyrrolo[3,4-c]pyrazol-5-yl}-3-hydroxy-2-phenylpropan-1-one]
15 nM | 94% | O=C(N1Cc2cn(S(=O)(=O)c3ccc4c(c3)NCCO4)nc2C1)[C@]1(c2ccccn2)CCOC1 (single isomer, unassigned) [Compound 45, 6-({5-[(3S)-3-(pyridin-2-yl)oxolane-3-carbonyl]-2H,4H,5H,6H-pyrrolo[3,4-c]pyrazol-2-yl}sulfonyl)-3,4-dihydro-2H-1,4-benzoxazine or 6-({5-[(3R)-3-(pyridin-2-yl)oxolane-3-carbonyl]-2H,4H,5H,6H-pyrrolo[3,4-c]pyrazol-2-yl}sulfonyl)-3,4-dihydro-2H-1,4-benzoxazine]
129 nM | 45% | O=C(N1Cc2cn(S(=O)(=O)c3ccc4c(c3)NCCO4)nc2C1)[C@]1(c2ccccn2)CCOC1 (single isomer, unassigned) [Compound 46, 6-({5-[(3S)-3-(pyridin-2-yl)oxolane-3-carbonyl]-2H,4H,5H,6H-pyrrolo[3,4-c]pyrazol-2-yl}sulfonyl)-3,4-dihydro-2H-1,4-benzoxazine or 6-({5-[(3R)-3-(pyridin-2-yl)oxolane-3-carbonyl]-2H,4H,5H,6H-pyrrolo[3,4-c]pyrazol-2-yl}sulfonyl)-3,4-dihydro-2H-1,4-benzoxazine]
64 nM | 40% | Cc1ncccc1[C@@H](N)C(=O)N1Cc2cn(S(=O)(=O)c3ccc4ncsc4c3)nc2C1 (single isomer, unassigned) [Compound 47, (2R)-2-amino-1-[2-(1,3-benzothiazole-6-sulfonyl)-2H,4H,5H,6H-pyrrolo[3,4-c]pyrazol-5-yl]-2-(2-methylpyridin-3-yl)ethan-1-one or (2S)-2-amino-1-[2-(1,3-benzothiazole-6-sulfonyl)-2H,4H,5H,6H-pyrrolo[3,4-c]pyrazol-5-yl]-2-(2-methylpyridin-3-yl)ethan-1-one]
4000 nM |  | O=C(N1Cc2cn(S(=O)(=O)c3ccc4ncsc4c3)nc2C1)C1(c2ccccc2)CCCN1 (single isomer, unassigned) [Compound 54, 6-({5-[(2S)-2-phenylpyrrolidine-2-carbonyl]-2H,4H,5H,6H-pyrrolo[3,4-c]pyrazol-2-yl}sulfonyl)-1,3-benzothiazole or 6-({2-[(2R)-2-phenylpyrrolidine-2-carbonyl]-2H,4H,5H,6H-pyrrolo[3,4-c]pyrazol-2-yl}sulfonyl)-1,3-benzothiazole]
> 10000 nM | 0% | Cc1ncccc1[C@@H](N)C(=O)N1Cc2cn(S(=O)(=O)c3ccc4ncsc4c3)nc2C1 (single isomer, unassigned) [Compound 55, (2R)-2-amino-1-[2-(1,3-benzothiazole-6-sulfonyl)-2H,4H,5H,6H-pyrrolo[3,4-c]pyrazol-5-yl]-2-(2-methylpyridin-3-yl)ethan-1-one or (2S)-2-amino-1-[2-(1,3-benzothiazole-6-sulfonyl)-2H,4H,5H,6H-pyrrolo[3,4-c]pyrazol-5-yl]-2-(2-methylpyridin-3-yl)ethan-1-one]

The next lines start with the compound.

SMILES | AC50 | PKR % activation
O=C([C@H](CO)c1ccccc1)N1Cc2cn(S(=O)(=O)c3ccc4ncsc4c3)nc2C1 (single isomer, unassigned) [Compound 2, (2S)-1-[2-(1,3-benzothiazole-6-sulfonyl)-2H,4H,5H,6H-pyrrolo[3,4-c]pyrazol-5-yl]-3-hydroxy-2-phenylpropan-1-one or (2R)-1-[2-(1,3-benzothiazole-6-sulfonyl)-2H,4H,5H,6H-pyrrolo[3,4-c]pyrazol-5-yl]-3-hydroxy-2-phenylpropan-1-one] | 556 nM | 127%
O=C(N1Cc2cn(S(=O)(=O)c3ccc4ncsc4c3)nc2C1)[C@]1(c2ccccn2)CCOC1 (single isomer, unassigned) [Compound 19, 6-({5-[(3S)-3-(pyridin-2-yl)oxolane-3-carbonyl]-2H,4H,5H,6H-pyrrolo[3,4-c]pyrazol-2-yl}sulfonyl)-1,3-benzothiazole or 6-({5-[(3R)-3-(pyridin-2-yl)oxolane-3-carbonyl]-2H,4H,5H,6H-pyrrolo[3,4-c]pyrazol-2-yl}sulfonyl)-1,3-benzothiazole] | 699 nM | 59%
Cc1ccc(C2(C(=O)N3Cc4cn(S(=O)(=O)c5ccc6ncsc6c5)nc4C3)CCOC2)cn1 (single isomer, unassigned) [Compound 31, 6-({5-[(3S)-3-(6-methylpyridin-3-yl)oxolane-3-carbonyl]-2H,4H,5H,6H-pyrrolo[3,4-c]pyrazol-2-yl}sulfonyl)-1,3-benzothiazole or 6-({5-[(3R)-3-(6-methylpyridin-3-yl)oxolane-3-carbonyl]-2H,4H,5H,6H-pyrrolo[3,4-c]pyrazol-2-yl}sulfonyl)-1,3-benzothiazole] | 173 nM | 
Cc1cccc([C@@]2(C(=O)N3Cc4cn(S(=O)(=O)c5ccc6ncsc6c5)nc4C3)CCOC2)n1 (single isomer, unassigned) [Compound 36, 6-({5-[(3S)-3-(6-methylpyridin-2-yl)oxolane-3-carbonyl]-2H,4H,5H,6H-pyrrolo[3,4-c]pyrazol-2-yl}sulfonyl)-1,3-benzothiazole or 6-({5-[(3R)-3-(6-methylpyridin-2-yl)oxolane-3-carbonyl]-2H,4H,5H,6H-pyrrolo[3,4-c]pyrazol-2-yl}sulfonyl)-1,3-benzothiazole] | 591 nM | 38%
CC(CO)(C(=O)N1Cc2cn(S(=O)(=O)c3ccc4ncsc4c3)nc2C1)c1ccccn1 (single isomer, unassigned) [Compound 43, (2R)-1-[2-(1,3-benzothiazole-6-sulfonyl)-2H,4H,5H,6H-pyrrolo[3,4-c]pyrazol-5-yl]-3-hydroxy-2-methyl-2-(pyridin-2-yl)propan-1-one or (2S)-1-[2-(1,3-benzothiazole-6-sulfonyl)-2H,4H,5H,6H-pyrrolo[3,4-c]pyrazol-5-yl]-3-hydroxy-2-methyl-2-(pyridin-2-yl)propan-1-one] | 75 nM | 
C[C@@](CO)(C(=O)N1Cc2cn(S(=O)(=O)c3ccc4ncsc4c3)nc2C1)c1ccccn1 (single isomer, unassigned) [Compound 44, (2R)-1-[2-(1,3-benzothiazole-6-sulfonyl)-2H,4H,5H,6H-pyrrolo[3,4-c]pyrazol-5-yl]-3-hydroxy-2-methyl-2-(pyridin-2-yl)propan-1-one or (2S)-1-[2-(1,3-benzothiazole-6-sulfonyl)-2H,4H,5H,6H-pyrrolo[3,4-c]pyrazol-5-yl]-3-hydroxy-2-methyl-2-(pyridin-2-yl)propan-1-one] | 550 nM | 86%
C[C@@](CO)(C(=O)N1Cc2cn(S(=O)(=O)c3ccc4c(c3)OCCO4)nc2C1)c1ccccn1 (single isomer, unassigned) [Compound 48, (2R)-1-[2-(2,3-dihydro-1,4-benzodioxine-6-sulfonyl)-2H,4H,5H,6H-pyrrolo[3,4-c]pyrazol-5-yl]-3-hydroxy-2-methyl-2-(pyridin-2-yl)propan-1-one or (2S)-1-[2-(2,3-dihydro-1,4-benzodioxine-6-sulfonyl)-2H,4H,5H,6H-pyrrolo[3,4-c]pyrazol-5-yl]-3-hydroxy-2-methyl-2-(pyridin-2-yl)propan-1-one] | 223 nM | 46%
